From PubChem BioAssay (NCI)
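Grown in 96-well plates, cells were treated for 48 hours with each compound at five concentrations. Insufficient inhibition: endpoint recorded as highest concentration tested. TGI is the concentration that stops growth completely.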

Columns and labels:
Assay in all cases: DTP human tumour cell line panel, 48 h
SW-620 colon = test system: SW-620 colon
BT-549 breast = test system: BT-549 breast
ACHN renal = test system: ACHN renal
OVCAR-4 ovarian = test system: OVCAR-4 ovarian
K-562 leukemia = test system: K-562 leukemia
MOLT-4 leukemia = test system: MOLT-4 leukemia
UACC-257 melanoma = test system: UACC-257 melanoma
EKVX NSCLC = test system: EKVX NSCLC
DU-145 prostate = test system: DU-145 prostate
NCI-H226 lung = test system: NCI-H226 lung
MCF7 breast = test system: MCF7 breast
SK-MEL-5 melanoma = test system: SK-MEL-5 melanoma
SR leukemia = test system: SR leukemia
KM12 colon = test system: KM12 colon
HCC-2998 colon = test system: HCC-2998 colon
M14 melanoma = test system: M14 melanoma
A498 renal = test system: A498 renal
SNB-75 CNS = test system: SNB-75 CNS
U251 CNS = test system: U251 CNS
LOX IMVI melanoma = test system: LOX IMVI melanoma
COLO 205 colon = test system: COLO 205 colon
HL-60(TB) leukemia = test system: HL-60(TB) leukemia
MDA-MB-435 = test system: MDA-MB-435
NCI-H460 lung = test system: NCI-H460 lung
SF-268 CNS = test system: SF-268 CNS
NCI-H23 lung = test system: NCI-H23 lung
MALME-3M melanoma = test system: MALME-3M melanoma
HCT-15 colon = test system: HCT-15 colon
SNB-19 CNS = test system: SNB-19 CNS
HS 578T breast = test system: HS 578T breast
OVCAR-5 ovarian = test system: OVCAR-5 ovarian
SK-MEL-28 melanoma = test system: SK-MEL-28 melanoma
CAKI-1 renal = test system: CAKI-1 renal
HOP-62 NSCLC = test system: HOP-62 NSCLC
SN12C renal = test system: SN12C renal
A549 NSCLC = test system: A549 NSCLC
RXF 393 renal = test system: RXF 393 renal
HCT-116 colon = test system: HCT-116 colon
NCI/ADR-RES ovarian = test system: NCI/ADR-RES ovarian
SK-OV-3 ovarian = test system: SK-OV-3 ovarian
786-0 renal = test system: 786-0 renal
RPMI-8226 leukemia = test system: RPMI-8226 leukemia
NCI-H522 lung = test system: NCI-H522 lung
OVCAR-3 ovarian = test system: OVCAR-3 ovarian
IGROV1 ovarian = test system: IGROV1 ovarian
PC-3 prostate = test system: PC-3 prostate
SK-MEL-2 melanoma = test system: SK-MEL-2 melanoma
CCRF-CEM leukemia = test system: CCRF-CEM leukemia
HT29 colon = test system: HT29 colon
UACC-62 melanoma = test system: UACC-62 melanoma
MDA-MB-231 breast = test system: MDA-MB-231 breast
T-47D breast = test system: T-47D breast
OVCAR-8 ovarian = test system: OVCAR-8 ovarian
UO-31 renal = test system: UO-31 renal
MDA-N = test system: MDA-N
HOP-92 NSCLC = test system: HOP-92 NSCLC
SF-295 CNS = test system: SF-295 CNS
TK-10 renal = test system: TK-10 renal
SF-539 CNS = test system: SF-539 CNS

In the case of `O=C1O[C@H]2[C@@H]3OC(=O)c4cc(O)c(O)c(O)c4-c4c(cc(O)c(O)c4O)C(=O)OC[C@H]2O[C@@H](OC(=O)c2cc(O)c(O)c(O)c2)[C@@H]3OC(=O)c2cc(O)c(O)c3c2[C@@H]2C1=CC(=O)C(O)(O)C2(O)O3` (stereo partly drawn), the TGI (SW-620 colon) is reported as 38.5 µM, the TGI (BT-549 breast) is reported as greater than 100 µM and the TGI (ACHN renal) is reported as greater than 100 µM. For the same compound, the TGI (OVCAR-4 ovarian) was 39.4 µM, the TGI (K-562 leukemia) was 94.5 µM and the TGI (MOLT-4 leukemia) was 92 µM. It also gave a TGI (UACC-257 melanoma) greater than 100 µM, a TGI (EKVX NSCLC) greater than 100 µM and a TGI (DU-145 prostate) greater than 100 µM. For the same compound, the TGI (NCI-H226 lung) was greater than 100 µM, the TGI (MCF7 breast) was 50.6 µM and the TGI (SK-MEL-5 melanoma) was greater than 100 µM. For the same compound, the TGI (SR leukemia) was greater than 100 µM, the TGI (KM12 colon) was 80.1 µM and the TGI (HCC-2998 colon) was greater than 100 µM. The TGI (M14 melanoma) was greater than 100 µM, the TGI (A498 renal) was greater than 100 µM and the TGI (SNB-75 CNS) was 86.4 µM. For the same compound, the TGI (U251 CNS) was 33.5 µM, the TGI (LOX IMVI melanoma) was 26.1 µM and the TGI (COLO 205 colon) was greater than 100 µM. For the same compound, the TGI (HL-60(TB) leukemia) was greater than 100 µM, the TGI (MDA-MB-435) was 32.2 µM and the TGI (NCI-H460 lung) was greater than 100 µM. For the same compound, the TGI (SF-268 CNS) was greater than 100 µM, the TGI (NCI-H23 lung) was greater than 100 µM and the TGI (MALME-3M melanoma) was greater than 100 µM. The TGI (HCT-15 colon) was greater than 100 µM, the TGI (SNB-19 CNS) was greater than 100 µM and the TGI (HS 578T breast) was greater than 100 µM. The TGI (OVCAR-5 ovarian) was 67.1 µM, the TGI (SK-MEL-28 melanoma) was greater than 100 µM and the TGI (CAKI-1 renal) was 27.5 µM. For the same compound, the TGI (HOP-62 NSCLC) was greater than 100 µM, the TGI (SN12C renal) was 32.3 µM and the TGI (A549 NSCLC) was greater than 100 µM. The TGI (RXF 393 renal) was greater than 100 µM, the TGI (HCT-116 colon) was 32 µM and the TGI (NCI/ADR-RES ovarian) was greater than 100 µM. It also gave a TGI (SK-OV-3 ovarian) greater than 100 µM, a TGI (786-0 renal) of 39.8 µM and a TGI (RPMI-8226 leukemia) greater than 100 µM. The TGI (NCI-H522 lung) was 82.9 µM, the TGI (OVCAR-3 ovarian) was greater than 100 µM and the TGI (IGROV1 ovarian) was greater than 100 µM. The TGI (PC-3 prostate) was greater than 100 µM, the TGI (SK-MEL-2 melanoma) was greater than 100 µM and the TGI (CCRF-CEM leukemia) was greater than 100 µM. The TGI (HT29 colon) was 34.2 µM, the TGI (UACC-62 melanoma) was greater than 100 µM and the TGI (MDA-MB-231 breast) was 40.2 µM. It also gave a TGI (T-47D breast) of 90.7 µM, a TGI (OVCAR-8 ovarian) of 40.5 µM and a TGI (UO-31 renal) greater than 100 µM. The TGI (MDA-N) was 34.6 µM, the TGI (HOP-92 NSCLC) was greater than 100 µM and the TGI (SF-295 CNS) was greater than 100 µM.

`O=C(O)C(F)(OC(F)(F)C(F)(OC(F)(F)C(F)(F)C(F)(F)F)C(F)(F)F)C(F)(F)F` (stereo not drawn) gave a TGI (SW-620 colon) greater than 100 µM, a TGI (BT-549 breast) greater than 100 µM and a TGI (ACHN renal) greater than 100 µM. It also gave a TGI (OVCAR-4 ovarian) greater than 100 µM, a TGI (K-562 leukemia) greater than 100 µM and a TGI (MOLT-4 leukemia) greater than 100 µM. For the same compound, the TGI (UACC-257 melanoma) was greater than 100 µM, the TGI (EKVX NSCLC) was greater than 100 µM and the TGI (DU-145 prostate) was greater than 100 µM. It also gave a TGI (NCI-H226 lung) greater than 100 µM, a TGI (MCF7 breast) greater than 100 µM and a TGI (SK-MEL-5 melanoma) greater than 100 µM. It also gave a TGI (SR leukemia) greater than 100 µM, a TGI (KM12 colon) greater than 100 µM and a TGI (HCC-2998 colon) greater than 100 µM. For the same compound, the TGI (M14 melanoma) was greater than 100 µM, the TGI (A498 renal) was greater than 100 µM and the TGI (SNB-75 CNS) was greater than 100 µM. For the same compound, the TGI (U251 CNS) was greater than 100 µM, the TGI (LOX IMVI melanoma) was greater than 100 µM and the TGI (COLO 205 colon) was greater than 100 µM. The TGI (HL-60(TB) leukemia) was greater than 100 µM, the TGI (MDA-MB-435) was greater than 100 µM and the TGI (NCI-H460 lung) was greater than 100 µM. The TGI (SF-268 CNS) was greater than 100 µM, the TGI (NCI-H23 lung) was greater than 100 µM and the TGI (MALME-3M melanoma) was greater than 100 µM. The TGI (HCT-15 colon) was greater than 100 µM, the TGI (SNB-19 CNS) was greater than 100 µM and the TGI (HS 578T breast) was greater than 100 µM. The TGI (OVCAR-5 ovarian) was greater than 100 µM, the TGI (SK-MEL-28 melanoma) was greater than 100 µM and the TGI (CAKI-1 renal) was greater than 100 µM. It also gave a TGI (HOP-62 NSCLC) greater than 100 µM, a TGI (SN12C renal) greater than 100 µM and a TGI (A549 NSCLC) greater than 100 µM. It also gave a TGI (TK-10 renal) greater than 100 µM, a TGI (RXF 393 renal) greater than 100 µM and a TGI (HCT-116 colon) greater than 100 µM. The TGI (NCI/ADR-RES ovarian) was greater than 100 µM, the TGI (SK-OV-3 ovarian) was greater than 100 µM and the TGI (786-0 renal) was greater than 100 µM. It also gave a TGI (RPMI-8226 leukemia) greater than 100 µM, a TGI (NCI-H522 lung) greater than 100 µM and a TGI (OVCAR-3 ovarian) greater than 100 µM. For the same compound, the TGI (IGROV1 ovarian) was greater than 100 µM, the TGI (PC-3 prostate) was greater than 100 µM and the TGI (SK-MEL-2 melanoma) was greater than 100 µM. For the same compound, the TGI (CCRF-CEM leukemia) was greater than 100 µM, the TGI (HT29 colon) was greater than 100 µM and the TGI (UACC-62 melanoma) was greater than 100 µM. It also gave a TGI (MDA-MB-231 breast) greater than 100 µM, a TGI (SF-539 CNS) greater than 100 µM and a TGI (T-47D breast) greater than 100 µM. It also gave a TGI (OVCAR-8 ovarian) greater than 100 µM, a TGI (UO-31 renal) greater than 100 µM and a TGI (MDA-N) greater than 100 µM. For the same compound, the TGI (HOP-92 NSCLC) was greater than 100 µM and the TGI (SF-295 CNS) was greater than 100 µM.

`CCCCCC(/C=N/N)C(O)(C(F)(F)F)C(F)(F)F` (stereo not drawn) was tested, and the TGI (SW-620 colon) was greater than 10 µM, the TGI (BT-549 breast) was 9.27 µM and the TGI (ACHN renal) was greater than 10 µM. For the same compound, the TGI (OVCAR-4 ovarian) was greater than 10 µM, the TGI (MOLT-4 leukemia) was greater than 10 µM and the TGI (UACC-257 melanoma) was greater than 10 µM. It also gave a TGI (EKVX NSCLC) of 7.3 µM, a TGI (DU-145 prostate) of 6.09 µM and a TGI (NCI-H226 lung) of 8.63 µM. For the same compound, the TGI (MCF7 breast) was greater than 10 µM, the TGI (SK-MEL-5 melanoma) was 3.92 µM and the TGI (SR leukemia) was greater than 10 µM. The TGI (KM12 colon) was greater than 10 µM, the TGI (HCC-2998 colon) was greater than 10 µM and the TGI (M14 melanoma) was greater than 10 µM. The TGI (A498 renal) was 7.95 µM, the TGI (SNB-75 CNS) was 9.63 µM and the TGI (U251 CNS) was greater than 10 µM. It also gave a TGI (LOX IMVI melanoma) of 9.49 µM, a TGI (COLO 205 colon) of 3.4 µM and a TGI (HL-60(TB) leukemia) greater than 10 µM. For the same compound, the TGI (MDA-MB-435) was greater than 10 µM, the TGI (NCI-H460 lung) was 8.03 µM and the TGI (SF-268 CNS) was 5.92 µM. For the same compound, the TGI (NCI-H23 lung) was 9.49 µM, the TGI (MALME-3M melanoma) was 6.69 µM and the TGI (HCT-15 colon) was 9.54 µM. The TGI (SNB-19 CNS) was greater than 10 µM, the TGI (HS 578T breast) was 7.12 µM and the TGI (OVCAR-5 ovarian) was greater than 10 µM. For the same compound, the TGI (SK-MEL-28 melanoma) was 7.43 µM, the TGI (CAKI-1 renal) was 6.02 µM and the TGI (HOP-62 NSCLC) was greater than 10 µM. The TGI (SN12C renal) was greater than 10 µM, the TGI (A549 NSCLC) was greater than 10 µM and the TGI (TK-10 renal) was greater than 10 µM. The TGI (RXF 393 renal) was greater than 10 µM, the TGI (HCT-116 colon) was 9.02 µM and the TGI (NCI/ADR-RES ovarian) was greater than 10 µM. It also gave a TGI (SK-OV-3 ovarian) greater than 10 µM, a TGI (786-0 renal) greater than 10 µM and a TGI (RPMI-8226 leukemia) greater than 10 µM. The TGI (NCI-H522 lung) was greater than 10 µM, the TGI (OVCAR-3 ovarian) was greater than 10 µM and the TGI (IGROV1 ovarian) was greater than 10 µM. It also gave a TGI (PC-3 prostate) of 6.82 µM, a TGI (SK-MEL-2 melanoma) greater than 10 µM and a TGI (CCRF-CEM leukemia) greater than 10 µM. For the same compound, the TGI (HT29 colon) was greater than 10 µM, the TGI (UACC-62 melanoma) was greater than 10 µM and the TGI (MDA-MB-231 breast) was greater than 10 µM. For the same compound, the TGI (SF-539 CNS) was greater than 10 µM, the TGI (T-47D breast) was greater than 10 µM and the TGI (OVCAR-8 ovarian) was greater than 10 µM. For the same compound, the TGI (MDA-N) was greater than 10 µM, the TGI (HOP-92 NSCLC) was 6.36 µM and the TGI (SF-295 CNS) was 8.6 µM.
